# Data as given in patent US20100267561A1, “HERBICIDAL PYRIDAZINONE DERIVATIVES” (priority 2007, published 2010).
# Assays:
# Assay type in all cases: in vivo
# [1] = tested on: Italian ryegrass (Lolium multiflorum); assay: Test B pre-/postemergence plant response; settings: for Ryegrass, Italian plant response rating: 8 g ai/ha
# How it was run: (§1)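 Visual scoring from 0 (no effect) to 100 (complete control) against untreated controls was done 13 to 15 days after greenhouse treatment. Chemicals were formulated in a surfactant-containing non-phytotoxic solvent and applied to soil preemergence or to 1- to 4-leaf (2-18 cm) plants postemergence.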
# [2] = tested on: bermudagrass (Cynodon dactylon); assay: Test B pre-/postemergence plant response; settings: for Bermudagrass plant response rating: 8 g ai/ha
# How it was run: as §1
# [3] = tested on: common (oilseed) sunflower (Helianthus annuus); assay: Test B pre-/postemergence plant response; settings: Preemergence
# How it was run: as §1
# [4] = tested on: downy bromegrass (Bromus tectorum); assay: Test B pre-/postemergence plant response; settings: for Bromegrass, Downy plant response rating: 8 g ai/ha
# How it was run: as §1
# [5] = tested on: giant foxtail (Setaria faberii); assay: Test B pre-/postemergence plant response; settings: for Foxtail, Giant plant response rating: 8 g ai/ha
# How it was run: as §1
# [6] = tested on: lambsquarters (Chenopodium album); assay: Test B pre-/postemergence plant response; settings: for Lambsquarters plant response rating: 8 g ai/ha
# How it was run: as §1
# [7] = tested on: morningglory (Ipomoea coccinea); assay: Test B pre-/postemergence plant response; settings: for Morningglory plant response rating: 8 g ai/ha
# How it was run: as §1
# [8] = tested on: pigweed (Amaranthus retroflexus); assay: Test B pre-/postemergence plant response; settings: for Pigweed plant response rating: 8 g ai/ha
# How it was run: as §1
# [9] = tested on: soybean (Glycine max); assay: Test B pre-/postemergence plant response; settings: for Soybean plant response rating: 8 g ai/ha
# How it was run: as §1
# [10] = tested on: surinam grass (Brachiaria decumbens); assay: Test B pre-/postemergence plant response; settings: for Surinam Grass plant response rating: 8 g ai/ha
# How it was run: as §1
# [11] = tested on: wheat (Triticum aestivum); assay: Test B pre-/postemergence plant response; settings: for Wheat plant response rating: 8 g ai/ha
# How it was run: as §1
# [12] = tested on: canarygrass (Phalaris minor); assay: Test B postemergence plant response; settings: for Plant response rating, Canarygrass: Postemergence
# How it was run: (§2)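 Visual injury score from 0 (none) to 100 (complete control) versus controls, taken 13 to 15 days after treatment in the greenhouse; chemicals applied postemergence, as formulated, to plants of 1- to 4-leaf stage (2 to 18 cm tall); dash denotes no test result.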
# [13] = tested on: chickweed (Stellaria media); assay: Test B postemergence plant response; settings: for Plant response rating, Chickweed: Postemergence
# How it was run: as §2
# [14] = tested on: windgrass (Apera spica-venti); assay: Test B postemergence plant response; settings: for Plant response rating, Windgrass: Postemergence
# How it was run: as §2
# [15] = tested on: winter barley (Hordeum vulgare); assay: Test B postemergence plant response; settings: for Plant response rating, Barley: Postemergence, scale 0 to 100, 0 no effect, 100 complete control
# How it was run: as §2
# [16] = Postemergence, 16 g ai/ha, scale 0 to 100
# [17] = Postemergence, 31 g ai/ha, scale 0 to 100, 0 no effect, 100 complete control
# [18] = Postemergence, 62 g ai/ha, scale 0 to 100, 0 no effect, 100 complete control
# [19] = Preemergence, 16 g ai/ha, scale 0 to 100 (0 no effect, 100 complete control)
# [20] = Preemergence, 31 g ai/ha, 0 to 100 scale, 0 no effect, 100 complete control
# [21] = Preemergence, 62 g ai/ha, scale 0 to 100
# [22] = 8 g ai/ha, postemergence, 0-100 scale
# [23] = 31 g ai/ha, scale 0 to 100, 0 no effect, 100 complete control
# [24] = 62 g ai/ha, scale 0 to 100, 0 no effect, 100 complete control
structure (smiles),measurement,setting,value
CCc1cc(-c2ccc(Cl)cc2)nn1-c1c(OS(C)(=O)=O)cnn(C)c1=O [Compound 39],"Ryegrass, Italian plant response rating","[1]; postemergence, 0-100 scale",30
same,"Plant response rating, Ryegrass, Italian",[1]; [16],90
same,"Plant response rating, Ryegrass, Italian",[1]; [17],95
same,"Plant response rating, Ryegrass, Italian",[1]; [18],100
same,"Plant response rating, Ryegrass, Italian",[1]; [19],95
same,"Plant response rating, Ryegrass, Italian",[1]; [20],100
same,"Plant response rating, Ryegrass, Italian",[1]; [21],100
same,"Ryegrass, Italian plant response rating","[1]; Preemergence, scale 0 to 100",90
same,Bermudagrass plant response rating,"[2]; postemergence, 0-100 scale",0
same,"Plant response rating, Bermudagrass",[2]; [16],60
same,"Plant response rating, Bermudagrass",[2]; [17],75
same,"Plant response rating, Bermudagrass",[2]; [18],95
same,Bermudagrass plant response rating,"[2]; Preemergence, scale 0 to 100 (0 no effect, 100 complete control)",0
same,"Plant response rating, Bermudagrass",[2]; [19],90
same,"Plant response rating, Bermudagrass",[2]; [20],95
same,"Plant response rating, Bermudagrass",[2]; [21],98
same,"Plant response rating, Sunflower","[3]; 16 g ai/ha, scale 0 to 100 (0 no effect, 100 complete control)",0
same,"Plant response rating, Sunflower","[3]; 31 g ai/ha, 0 to 100 scale, 0 no effect, 100 complete control",0
same,"Plant response rating, Sunflower","[3]; 62 g ai/ha, scale 0 to 100",0
same,Sunflower plant response rating,"[3]; 8 g ai/ha, scale 0 to 100",0
same,"Bromegrass, Downy plant response rating","[4]; postemergence, 0-100 scale",5
same,"Plant response rating, Bromegrass, Downy",[4]; [16],10
same,"Plant response rating, Bromegrass, Downy",[4]; [17],45
same,"Plant response rating, Bromegrass, Downy",[4]; [18],80
same,"Plant response rating, Bromegrass, Downy",[4]; [19],70
same,"Plant response rating, Bromegrass, Downy",[4]; [20],85
same,"Plant response rating, Bromegrass, Downy",[4]; [21],85
same,"Bromegrass, Downy plant response rating","[4]; Preemergence, scale 0 to 100",0
same,"Foxtail, Giant plant response rating","[5]; postemergence, 0-100 scale",80
same,"Plant response rating, Foxtail, Giant",[5]; [16],98
same,"Plant response rating, Foxtail, Giant",[5]; [17],100
same,"Plant response rating, Foxtail, Giant",[5]; [18],100
same,"Plant response rating, Foxtail, Giant",[5]; [19],100
same,"Plant response rating, Foxtail, Giant",[5]; [20],100
same,"Plant response rating, Foxtail, Giant",[5]; [21],100
same,"Foxtail, Giant plant response rating","[5]; Preemergence, scale 0 to 100",100
same,Lambsquarters plant response rating,"[6]; postemergence, 0-100 scale",0
same,"Plant response rating, Lambsquarters",[6]; [16],0
same,"Plant response rating, Lambsquarters",[6]; [17],0
same,"Plant response rating, Lambsquarters",[6]; [18],0
same,"Plant response rating, Lambsquarters",[6]; [19],0
same,"Plant response rating, Lambsquarters",[6]; [20],0
same,"Plant response rating, Lambsquarters",[6]; [21],0
same,Lambsquarters plant response rating,"[6]; Preemergence, scale 0 to 100",0
same,Morningglory plant response rating,"[7]; postemergence, 0-100 scale",0
same,"Plant response rating, Morningglory",[7]; [16],0
same,"Plant response rating, Morningglory",[7]; [17],0
same,"Plant response rating, Morningglory",[7]; [18],0
same,"Plant response rating, Morningglory",[7]; [19],0
same,"Plant response rating, Morningglory",[7]; [20],0
same,"Plant response rating, Morningglory",[7]; [21],0
same,Morningglory plant response rating,"[7]; Preemergence, scale 0 to 100",0
same,Pigweed plant response rating,"[8]; postemergence, 0-100 scale",0
same,"Plant response rating, Pigweed",[8]; [16],0
same,"Plant response rating, Pigweed",[8]; [17],0
same,"Plant response rating, Pigweed",[8]; [18],0
same,"Plant response rating, Pigweed",[8]; [19],0
same,"Plant response rating, Pigweed",[8]; [20],0
same,"Plant response rating, Pigweed",[8]; [21],0
same,Pigweed plant response rating,"[8]; Preemergence, scale 0 to 100",0
same,Soybean plant response rating,"[9]; postemergence, 0-100 scale",0
same,"Plant response rating, Soybean",[9]; [16],0
same,"Plant response rating, Soybean",[9]; [18],0
same,"Plant response rating, Soybean",[9]; [19],0
same,"Plant response rating, Soybean",[9]; [20],0
same,"Plant response rating, Soybean",[9]; [21],0
same,Soybean plant response rating,"[9]; Preemergence, scale 0 to 100",0
same,Surinam Grass plant response rating,"[10]; postemergence, 0-100 scale",100
same,"Plant response rating, Surinam Grass",[10]; [16],100
same,"Plant response rating, Surinam Grass",[10]; [18],100
same,"Plant response rating, Surinam Grass",[10]; [19],95
same,"Plant response rating, Surinam Grass",[10]; [20],100
same,"Plant response rating, Surinam Grass",[10]; [21],100
same,Surinam Grass plant response rating,"[10]; Preemergence, scale 0 to 100",90
same,Wheat plant response rating,"[11]; postemergence, 0-100 scale",20
same,"Plant response rating, Wheat",[11]; [16],20
same,"Plant response rating, Wheat",[11]; [18],98
same,"Plant response rating, Wheat",[11]; [19],30
same,"Plant response rating, Wheat",[11]; [20],70
same,"Plant response rating, Wheat",[11]; [21],80
same,Wheat plant response rating,"[11]; Preemergence, scale 0 to 100",0
same,Canarygrass plant response rating,[12]; [22],0
same,"Plant response rating, Canarygrass","[12]; 16 g ai/ha, scale 0 to 100",0
same,"Plant response rating, Canarygrass",[12]; [23],40
same,"Plant response rating, Canarygrass",[12]; [24],50
same,Chickweed plant response rating,[13]; [22],0
same,"Plant response rating, Chickweed","[13]; 16 g ai/ha, scale 0 to 100",0
same,"Plant response rating, Chickweed",[13]; [23],0
same,"Plant response rating, Chickweed",[13]; [24],0
same,Windgrass plant response rating,[14]; [22],0
same,"Plant response rating, Windgrass","[14]; 16 g ai/ha, scale 0 to 100",40
same,"Plant response rating, Windgrass",[14]; [24],100
same,Barley plant response rating,[15]; [22],0
same,"Plant response rating, Barley",[15]; 16 g ai/ha,5
same,"Plant response rating, Barley",[15]; 31 g ai/ha,40
same,"Plant response rating, Barley",[15]; 62 g ai/ha,70
